Assay results as given in patent publication EP0576766A1, “Propanolamine derivatives, their preparation and use” (NOVO NORDISK A/S, priority 1992, dated 1994).
Counter-ions that a name gives are not always drawn.

Each molecule was assayed on voltage operated calcium channels (VOC) (assay: Inhibition of depolarization-stimulated 45Ca uptake into brain synaptosomes). Details: inhibition of stimulated uptake of ⁴⁵Ca in depolarized (145 mM KCl) rat cerebral cortex synaptosomes (P₂ fraction), corrected for basal uptake; 15 s incubation; estimated from dose response curves.
Assay type: biochemical
Excerpt: The pharmacological properties of the compounds of the invention can be illustrated by determining their capability to inhibit calcium uptake into brain synaptosomes.
Depolarization of neuronal membranes leads to an opening of socalled "voltage operated calcium channels" (VOC) in the membranes which allows a massive influx of calcium from the extracellular space. A crude synaptosomal preparation (socalled P₂ fraction) contains small vesicles surrounded by neuronal membrane and it is possible in such a preparation to study a depolarization-induced opening of VOC.
A male Wistar rat is decapitated and the cerebral cortex removed and homogenized in 10 ml. of ice-cold 0.32 M sucrose using a glass homogenizer with a teflon pestle. All subsequent steps for isolation of synaptosomes are done at 0-4°C. The homogenate is centrifuged at 1000 x g for 10 min and the resulting supernatant is re-centrifuged at 18000 x g for 20 min. This pellet (P₂) is resuspended in 0.32 M sucrose (5 ml per g of original tissue) with a teflon pestle.
The tubes are pre-incubated for 30 min on ice and then for 6 min at 37°C in a water bath.
The incubation is continued for 15 s.
The amount of radioactivity on the filter disc is determined by liquid scintillation spectrometry.
Test substances are dissolved in 10 ml of 48% ethanol at a concentration of 0.44 mg/ml. Dilution are made in 48% ethanol to give final concentrations of 0.1, 0.3, 1, 3 and 10 µg/ml. Experiments are performed in triplicate. Controls for depolarized and nondepolarized samples are included in the assay and test substances are only tested in depolarized samples.
The test value will be given as IC₅₀ (the concentration (µg/ml) of test substance which inhibit 50% of stimulated uptake of ⁴⁵Ca (uptake in depolarized samples corrected for basal uptake in nondepolarized samples )). The IC₅₀ value is estimated from dose response curves.
With `Cl.c1ccc(C(CCN2CCOCC2)Oc2ccc3c(c2)CCC3)cc1` (stereo not drawn) [Compound 2, 4-(3-(5-Indanyloxy)-3-phenylpropyl)morpholine, hydrochloride] the IC₅₀ was 16 µg/mL.
`FC(F)(F)c1ccc(OC(CCN2CCOCC2)c2ccccc2)cc1.O=C(O)C(=O)O` (stereo not drawn) [Compound 3, 4-(3-Phenyl-3-(4-trifluoromethylphenoxy)propyl)morpholine, oxalate] was tested, and the IC₅₀ was 17 µg/mL.
`CN1CCN(CCC(Oc2ccc(C(F)(F)F)cc2)c2ccccc2)CC1` (stereo not drawn) [Compound 5, 1-(3-Phenyl-3-(4-trifluoromethylphenoxy)propyl)-4-methyl piperazine, oxalate] was tested, and the IC₅₀ was 7.5 µg/mL.
With `CN(C)CCC(Oc1cccc(C(F)(F)F)c1)c1ccc([N+](=O)[O-])cc1.Cl` (stereo not drawn) [Compound 15, N,N-dimethyl-3-(4-nitrophenyl)-3-(3-trifluoromethylphenoxy)propanamine, hydrochloride] the IC₅₀ was 6.1 µg/mL.
For `CN(C)CCC(Oc1ccc2c(c1)CCCC2)c1ccc([N+](=O)[O-])cc1.Cl` (stereo not drawn) [Compound 17, N,N-dimethyl-3-(4-nitrophenyl)-3-(5,6,7,8-tetrahydro-2-naphthoxy)propanamine, hydrochloride], the IC₅₀ was 4.9 µg/mL.
`FC(F)(F)c1ccc(OC2c3ccccc3CC2CN2CCCCC2)cc1` (stereo not drawn) [Compound 20, trans-1-(1-(4-Trifluoromethylphenoxy)indan-2-yl)methyl piperidine, hydrochloride] gave an IC₅₀ of 8.0 µg/mL.
Work on `CC(=O)Nc1ccc(C(CCN2CCCCC2)Oc2ccc(C(F)(F)F)cc2)cc1.O=C(O)C(=O)O` (stereo not drawn) [Compound 23, 1-(3-(4-Acetamidophenyl)-3-(4-trifluoromethylphenoxy)propyl)piperidine, oxalate] yielded an IC₅₀ of 4.0 µg/mL.
Molecule `CC(=O)Nc1cccc(C(CCN2CCCCC2)Oc2ccc(C(F)(F)F)cc2)c1.O=C(O)C(=O)O` (stereo not drawn) [Compound 24, 1-(3-(3-Acetamidophenyl)-3-(4-trifluoromethylphenoxy)propyl)piperidine, oxalate] has an IC₅₀ of 5.3 µg/mL.
`N#Cc1ccc(C(CCN2CCCCC2)Oc2ccc(C(F)(F)F)cc2)cc1.O=C(O)C(=O)O` (stereo not drawn) [Compound 25, 1-(3-(4-Cyanophenyl)-3-(4-trifluoromethylphenoxy)propyl)piperidine, oxalate] was tested, and the IC₅₀ was 2.2 µg/mL.
